In patent EP0211354A2, “Nucleosides and their use as antineoplastic agents” (MERRELL DOW PHARMACEUTICALS INC., priority 1985, dated 1987):
Marks after values point to notes of the source that are not given here.

Legend:
Hela Cells = assay: Growth of Hela cells in culture (cell count after 72 hours); type: cell-based
Method: Hela cells (1 × 10⁵/35 mm dish) were plated and incubated at 37°C in a CO₂ (5%) incubator. Media containing different dilutions of MDL 27,069 were added after overnight incubation. At the end of 72 hours, the cells were collected by trypsinization and counted using a coulter counter. *All cells were killed.

L1210 mouse leukemia = assay: Antitumor activity against L1210 mouse leukemia (survival time); type: in vivo; conditions: for CURES: cured = surviving more than 30 days
Method: 1 × 10⁵ L1210 leukemia cells per animal were injected i.p. on day 0. Treatment with the drug was started on day 1. The compound was dissolved in sterile water and administered i.p. at the doses indicated from day 1 to day 9 once daily. Therapeutic effect of the compound was determined by determining the survival time of the treated group in comparison with control group as follows: [formula] *Animals surviving for more than 30 days are considered cured.

[1] = 0,01 mg/kg i.p. once daily day 1 to day 9
[2] = 0.25 mg/kg i.p. once daily day 1 to day 9
[3] = 0.5 mg/kg i.p. once daily day 1 to day 9
[4] = 1.0 mg/kg i.p. once daily day 1 to day 9

`Nc1ccn([C@@H]2O[C@H](CO)[C@@H](O)C2(F)F)c(=O)n1` [MDL 27,069, 2'-desoxy-2',2'-difluorocytidine] was tested, and the “Cell Number” value (Hela Cells; 0.00062 μg/ml) was 2.0 X10^5, the “Cell Number” value (Hela Cells; 0.00125 μg/ml) was 1.17 X10^5 and the “Cell Number” value (Hela Cells; 0.0025 μg/ml) was 0.51 X10^5. The “Cell Number” value (Hela Cells; 0.005 μg/ml) was 0.36 X10^5, the “Cell Number” value (Hela Cells; 0.01 μg/ml, *All cells were killed) was 0* X10^5 and the inhibition at 0.00062 µg/mL (Hela Cells; Homo sapiens, 0.00062 μg/ml) was 48%. It also gave an inhibition at 0.00125 µg/mL (Hela Cells; Homo sapiens, 0.00125 μg/ml) of 70%, an inhibition at 0.0025 µg/mL (Hela Cells; Homo sapiens, 0.0025 μg/ml) of 87% and an inhibition at 0.005 µg/mL (Hela Cells; Homo sapiens, 0.005 μg/ml) of 91%. The inhibition at 0.01 µg/mL (Hela Cells; Homo sapiens, 0.01 μg/ml) was 100%, the “MEAN SURVIVAL TIME” value (L1210 mouse leukemia; [1]) was 13.25 days and the “o/o T/C” value (L1210 mouse leukemia; [1]) was 189 o/o. The CURES (L1210 mouse leukemia; [1]) was 0/5, the “MEAN SURVIVAL TIME” value (L1210 mouse leukemia; [2]) was 13.40 days and the “o/o T/C” value (L1210 mouse leukemia; [2]) was 191 o/o. The CURES (L1210 mouse leukemia; [2]) was 0/5, the “o/o T/C” value (L1210 mouse leukemia; [3]) was 249 o/o and the CURES (L1210 mouse leukemia; [3]) was 0/5. For the same compound, the “MEAN SURVIVAL TIME” value (L1210 mouse leukemia; [4]) was 20.0 days, the “o/o T/C” value (L1210 mouse leukemia; [4]) was 286 o/o and the CURES (L1210 mouse leukemia; [4]) was 2/5*.
